Source: PubChem BioAssay AID248 (DTP/NCI, 2004)
“And” between values parts separate entries of the source, which are not always exact repeats. Equal entries are not always repeated. Inconclusive results and toxic doses are left out. Cut-off read from the data, not from the text of the source: active = T/C of 150% or more; inactive = T/C below 125%.

Tested on: L1210 leukemia ip in BDF1 mice, survival T/C
Test: NCI In Vivo Anticancer Drug Screen. Data for tumor model L1210 Leukemia (intraperitoneal) in B6D2F1 (BDF1) mice
Conditions: endpoint: mean survival time, higher = longer survival
Outline: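 Each compound was tested against a transplantable tumor grown in mice. The endpoint was survival, with treated animals benchmarked against vehicle controls as a simple ratio.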

[1] = dose: 100.0 mg/kg/injection, schedule: Q01DX009 (ip), vehicle: Klucel (hydroxypropylcellulose) (HPC)
[2] = dose: 100.0 mg/kg/injection, schedule: Q04DX003 (ip), vehicle: Klucel (hydroxypropylcellulose) (HPC)
[3] = dose: 200.0 mg/kg/injection, schedule: Q01DX009 (ip), vehicle: Klucel (hydroxypropylcellulose) (HPC)
[4] = dose: 200.0 mg/kg/injection, schedule: Q04DX003 (ip), vehicle: Klucel (hydroxypropylcellulose) (HPC)
[5] = dose: 400.0 mg/kg/injection, schedule: Q01DX009 (ip), vehicle: Klucel (hydroxypropylcellulose) (HPC)
[6] = dose: 400.0 mg/kg/injection, schedule: Q04DX003 (ip), vehicle: Klucel (hydroxypropylcellulose) (HPC)
[7] = dose: 100.0 mg/kg/injection, schedule: Q04DX002 (ip), vehicle: Klucel (hydroxypropylcellulose) (HPC)
[8] = dose: 200.0 mg/kg/injection, schedule: Q04DX002 (ip), vehicle: Klucel (hydroxypropylcellulose) (HPC)
[9] = dose: 400.0 mg/kg/injection, schedule: Q04DX002 (ip), vehicle: Klucel (hydroxypropylcellulose) (HPC)
[10] = dose: 100.0 mg/kg/injection, schedule: Q01DX001 (ip), vehicle: carboxymethylcellulose (CMC)
[11] = dose: 200.0 mg/kg/injection, schedule: Q01DX001 (ip), vehicle: carboxymethylcellulose (CMC)
[12] = dose: 400.0 mg/kg/injection, schedule: Q01DX001 (ip), vehicle: carboxymethylcellulose (CMC)
[13] = dose: 50.0 mg/kg/injection, schedule: Q01DX009 (ip), vehicle: saline
[14] = dose: 100.0 mg/kg/injection, schedule: Q01DX009 (ip), vehicle: saline
[15] = dose: 25.0 mg/kg/injection, schedule: Q01DX009 (ip), vehicle: saline
[16] = dose: 100.0 mg/kg/injection, schedule: Q04DX003 (ip), vehicle: saline
[17] = dose: 100.0 mg/kg/injection, schedule: Q01DX009 (ip), vehicle: saline with Tween-80
[18] = dose: 200.0 mg/kg/injection, schedule: Q01DX009 (ip), vehicle: saline with Tween-80
[19] = dose: 400.0 mg/kg/injection, schedule: Q01DX009 (ip), vehicle: saline with Tween-80
[20] = dose: 200.0 mg/kg/injection, schedule: Q04DX003 (ip), vehicle: saline
[21] = dose: 50.0 mg/kg/injection, schedule: Q01DX001 (ip), vehicle: saline
[22] = dose: 100.0 mg/kg/injection, schedule: Q01DX001 (ip), vehicle: saline
[23] = dose: 200.0 mg/kg/injection, schedule: Q01DX001 (ip), vehicle: saline

Measured: T/C

COc1ccc(C(=O)CC(=O)CC(=O)c2ccccc2)cc1
inactive: [1] 117 % of control | [2] 107 % of control | [3] 102 % of control | [4] 96 % of control | [5] 96 % of control | [6] 105 % of control

O=C1C(Br)C(Br)C(=O)N1c1ccccc1F (centres undefined)
inactive: dose: 12.5 mg/kg/injection, schedule: Q01DX009 (ip), vehicle: other 96 % of control | dose: 25.0 mg/kg/injection, schedule: Q01DX009 (ip), vehicle: other 92 % of control

Oc1ccccc1-c1nc2cc(Cl)ccc2o1
inactive: [7] 97 % of control | [8] 97 % of control | [9] 101 % of control

C/C(=N\N=C(N)N)c1ccc(N2CCN(c3ccc(/C(C)=N/N=C(N)N)cc3)CC2)cc1
inactive: [10] 94 % of control | [11] 97 % of control | [12] 100 % of control

CC(C)CNCc1cc(Nc2ccnc3cc(Cl)ccc23)ccc1O
inactive: dose: 100.0 mg/kg/injection, schedule: Q04DX002 (ip), vehicle: saline 94 % of control | dose: 200.0 mg/kg/injection, schedule: Q04DX002 (ip), vehicle: saline 98 % of control

C=C(Cl)CSC(=S)N(C)C
inactive: [13] 98 % of control | [14] 98 % of control

OCCN(CCO)c1cc(OCc2ccccc2)cc(OCc2ccccc2)c1
inactive: dose: 25.0 mg/kg/injection, schedule: Q01DX009 (ip), vehicle: water 94 % of control | dose: 50.0 mg/kg/injection, schedule: Q01DX009 (ip), vehicle: water 97 % of control | dose: 100.0 mg/kg/injection, schedule: Q01DX009 (ip), vehicle: water 101 % of control | dose: 200.0 mg/kg/injection, schedule: Q01DX009 (ip), vehicle: water 86 % of control | dose: 400.0 mg/kg/injection, schedule: Q01DX009 (ip), vehicle: water 95 % of control

Cc1nc(Cl)c2cnccn12
inactive: dose: 12.5 mg/kg/injection, schedule: Q01DX009 (ip), vehicle: saline 101 % of control | [15] 105 % of control | [13] 103 % of control | [16] 88 % of control

CN(C)NC(=O)CC(NCc1ccccc1)C(=O)O (centres undefined)
inactive: [17] 94 % of control | [18] 95 % of control | [19] 95 % of control

COC(C)c1cnccc1/C(C)=C1/Nc2ccccc2C1=O (centres undefined)
inactive: dose: 50.0 mg/kg/injection, schedule: Q04DX003 (ip), vehicle: Klucel (hydroxypropylcellulose) (HPC) 95 % of control | dose: 100.0 mg/kg/injection, schedule: Q01DX001 (ip), vehicle: Klucel (hydroxypropylcellulose) (HPC) 107 % of control | [2] 100 % of control and 91 % of control | dose: 200.0 mg/kg/injection, schedule: Q01DX001 (ip), vehicle: Klucel (hydroxypropylcellulose) (HPC) 94 % of control | [4] 96 % of control | dose: 400.0 mg/kg/injection, schedule: Q01DX001 (ip), vehicle: Klucel (hydroxypropylcellulose) (HPC) 97 % of control | [6] 97 % of control

COC(=O)C(=O)CC(=O)c1cccc([N+](=O)[O-])c1
inactive: [7] 103 % of control | [8] 95 % of control | [9] 95 % of control

ON=C1CSCSC1
inactive: dose: 12.5 mg/kg/injection, schedule: Q04DX002 (ip), vehicle: saline 91 % of control | dose: 25.0 mg/kg/injection, schedule: Q04DX002 (ip), vehicle: saline 94 % of control | dose: 50.0 mg/kg/injection, schedule: Q04DX002 (ip), vehicle: saline 88 % of control

Cc1cc(Cl)ccc1OCC(=O)NCC(C)O (centres undefined)
inactive: [7] 100 % of control | [8] 98 % of control | [9] 98 % of control

COC(=O)C(Br)CBr (centres undefined)
inactive: [15] 100 % of control | [13] 105 % of control | [14] 98 % of control and 105 % of control | [16] 102 % of control | [20] 116 % of control

C/C(=N\O)C(C)(C)C
inactive: dose: 25.0 mg/kg/injection, schedule: Q04DX002 (ip), vehicle: Klucel (hydroxypropylcellulose) (HPC) 98 % of control | dose: 50.0 mg/kg/injection, schedule: Q04DX002 (ip), vehicle: Klucel (hydroxypropylcellulose) (HPC) 91 % of control | [7] 94 % of control and 103 % of control

C=CCNC(=O)CS(=O)(=O)NCC=C
inactive: dose: 100.0 mg/kg/injection, schedule: Q04DX003 (ip), vehicle: carboxymethylcellulose (CMC) 95 % of control | dose: 200.0 mg/kg/injection, schedule: Q04DX003 (ip), vehicle: carboxymethylcellulose (CMC) 96 % of control | dose: 400.0 mg/kg/injection, schedule: Q04DX003 (ip), vehicle: carboxymethylcellulose (CMC) 117 % of control

O=C(S)c1ccccc1.[Pb]
inactive: dose: 100.0 mg/kg/injection, schedule: Q04DX002 (ip), vehicle: saline with Tween-80 87 % of control | dose: 200.0 mg/kg/injection, schedule: Q04DX002 (ip), vehicle: saline with Tween-80 108 % of control

COc1ccc(-c2cc(-c3ccc(Cl)cc3)no2)cc1
inactive: [2] 106 % of control | [4] 92 % of control | [6] 95 % of control

O=[N+]([O-])c1ccc2c(c1)Cc1c-2cc(I)c(O)c1I
inactive: [10] 96 % of control | [11] 98 % of control | [12] 98 % of control

CC(C#N)N(C)C (centres undefined)
inactive: dose: 5.0 mg/kg/injection, schedule: Q01DX001 (ip), vehicle: saline 96 % of control | dose: 10.0 mg/kg/injection, schedule: Q01DX001 (ip), vehicle: saline 104 % of control | dose: 10.0 mg/kg/injection, schedule: Q01DX009 (ip), vehicle: saline 98 % of control | dose: 20.0 mg/kg/injection, schedule: Q01DX001 (ip), vehicle: saline 102 % of control | dose: 20.0 mg/kg/injection, schedule: Q01DX009 (ip), vehicle: saline 109 % of control | dose: 40.0 mg/kg/injection, schedule: Q01DX009 (ip), vehicle: saline 98 % of control

CCC(Br)(CC)C(=O)c1ccc(OCC(=O)O)c(Cl)c1Cl
inactive: [21] 104 % of control | [22] 96 % of control | [23] 102 % of control

CCOC(=O)Nc1ccc(OC)cc1
inactive: [1] 96 % of control | [2] 103 % of control | [3] 98 % of control | [4] 97 % of control | [5] 93 % of control | [6] 98 % of control

C=CCOc1ccn(C)c(=O)n1
inactive: [14] 98 % of control | [16] 108 % of control | dose: 200.0 mg/kg/injection, schedule: Q01DX009 (ip), vehicle: saline 101 % of control | [20] 97 % of control | dose: 400.0 mg/kg/injection, schedule: Q01DX009 (ip), vehicle: saline 98 % of control | dose: 400.0 mg/kg/injection, schedule: Q04DX003 (ip), vehicle: saline 111 % of control

C(=C\c1ccc(-n2nc3ccc4ccccc4c3n2)cc1)/c1ccccc1
inactive: dose: 50.0 mg/kg/injection, schedule: Q01DX009 (ip), vehicle: saline with Tween-80 97 % of control | [17] 102 % of control | [18] 102 % of control

OC1CSC1
inactive: [21] 89 % of control | [22] 96 % of control | [17] 96 % of control | dose: 100.0 mg/kg/injection, schedule: Q04DX003 (ip), vehicle: saline with Tween-80 98 % of control | [23] 100 % of control | [18] 98 % of control | dose: 200.0 mg/kg/injection, schedule: Q04DX003 (ip), vehicle: saline with Tween-80 98 % of control | [19] 96 % of control | dose: 400.0 mg/kg/injection, schedule: Q04DX003 (ip), vehicle: saline with Tween-80 102 % of control

O=C(Nc1ccccc1)OC1CCCC1
inactive: [2] 101 % of control | [4] 101 % of control | [6] 96 % of control

Nc1ccc(CCCCOc2ccccc2)cc1
inactive: dose: 25.0 mg/kg/injection, schedule: Q01DX001 (ip), vehicle: saline with Tween-80 104 % of control | dose: 50.0 mg/kg/injection, schedule: Q01DX001 (ip), vehicle: saline with Tween-80 95 % of control | dose: 100.0 mg/kg/injection, schedule: Q01DX001 (ip), vehicle: saline with Tween-80 98 % of control and 106 % of control
